# Experimental data: patent publication US8445674B2, “Heterocyclyl compounds” (Hoffmann-La Roche Inc, priority 2009, dated 2013)
# pIC50: −log10 of the molar value.
# Biological target: T1, human chemokine receptor 2 isoform B (Homo sapiens, UniProt P41597)
# T1 construct: host or cells: CHOK1-CCR2B-A5 cells (CHO-K1)
# T1 sequence (P41597 1-360 isoform P41597-2): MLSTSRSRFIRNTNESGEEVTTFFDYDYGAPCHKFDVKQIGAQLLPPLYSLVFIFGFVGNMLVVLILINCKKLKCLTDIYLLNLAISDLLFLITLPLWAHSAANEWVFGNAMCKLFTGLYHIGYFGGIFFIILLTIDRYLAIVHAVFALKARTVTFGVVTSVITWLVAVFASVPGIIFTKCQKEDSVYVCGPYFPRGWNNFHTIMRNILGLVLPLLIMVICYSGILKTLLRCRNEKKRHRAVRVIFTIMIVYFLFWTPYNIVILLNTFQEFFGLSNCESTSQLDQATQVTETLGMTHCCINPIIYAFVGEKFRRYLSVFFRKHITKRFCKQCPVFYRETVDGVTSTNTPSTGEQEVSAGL
# Experiment: Calcium mobilization assay (FLIPR, antagonist activity against MCP-1)
# Format: cell-based
# Details: Ca mobilisation assay, CHOK1-CCR2B-A5 cells, inhibition of calcium increase induced by 20 nM MCP-1
# Outline: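 CHOK1 cells stably overexpressing human CCR2B, loaded with 4 μM Fluo-4 for 2 h at 30° C, compounds added and agonist signal read by FLIPR for 80 s. After 20-30 min at 30° C, 20 nM MCP-1 was added and fluorescence read again. IC50 is 50% inhibition of specific calcium increase (max minus basal).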
row,Compound,pIC50
1,"C[C@H]1C(=O)N(CCCC(=O)N2CCC3(CC3)[C@H](O)C2)[C@H](C(N)=O)CN1C(=O)Nc1ccc(C(F)(F)F)c(C(F)(F)F)c1 [Example 149, (3S,6S)-4-[4-((S)-4-Hydroxy-6-aza-spiro[2.5]oct-6-yl)-4-oxo-butyl]-6-methyl-5-oxo-piperazine-1,3-dicarboxylic acid 3-amide 1-[(3,4-bis-trifluoromethyl-phenyl)-amide]]",8.66
2,"C[C@@H]1C(=O)N(CCCC(=O)N2CCC3(CC3)[C@H](O)C2)[C@@H](C(N)=O)CN1C(=O)Nc1ccc(C(F)(F)F)c(Cl)c1 [Example 150, (3R,6R)-4-[4-((S)-4-Hydroxy-6-aza-spiro[2.5]oct-6-yl)-4-oxo-butyl]-6-methyl-5-oxo-piperazine-1,3-dicarboxylic acid 3-amide 1-[(3-chloro-4-trifluoromethyl-phenyl)-amide]]",7.74
3,"C[C@@H]1C(=O)N(CCCC(=O)N2CCC3(CC3)[C@H](O)C2)[C@@H](C(N)=O)CN1C(=O)Nc1ccc(Cl)c(Cl)c1 [Example 151, (3R,6R)-4-[4-((S)-4-Hydroxy-6-aza-spiro[2.5]oct-6-yl)-4-oxo-butyl]-6-methyl-5-oxo-piperazine-1,3-dicarboxylic acid 3-amide 1-[(3,4-dichloro-phenyl)-amide]]",7.21
4,(S)-4-[4-((S)-4-Hydroxy-6-aza-spiro[2.5]oct-6-yl)-4-oxo-butyl]-2-methyl-3-oxo-piperazine-1-carboxylic acid (3-chloro-phenyl)-amide [Example 39],6.02
5,"(rac)-2-{4-[(E)-3-(3,4-Dichloro-phenyl)-acryloyl]-7-oxo-[1,4]diazepan-1-yl}-4-hydroxy-N,N-dimethyl-butyramide [Example 4]",6.43
